According to patent US8242166B2, “C(10) ethyl ester and C(10) cyclopropyl ester substituted taxanes” (Florida State University Research Foundation, Inc., priority 2008, dated 2012):
Where two headings read alike, the source gives them in different places.

Columns and labels:
786-0 = experiment: MTT cytotoxicity (IC50), 786-0; assay type: cell-based; details: Homo sapiens
Method in brief: (§1)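 Seventy-two-hour MTT assay in RPMI-1640 medium: triplicate wells per concentration, seven 2-fold dilutions, 570 nm read-out.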

OVCAR4 = experiment: MTT cytotoxicity (IC50), OVCAR4; assay type: cell-based; details: Homo sapiens, OVCAR-4, 72 h, read-out: IN Vitro IC50 (nm) OVCAR4
Method in brief: as §1

HT29 = experiment: MTT cytotoxicity (IC50), HT29; assay type: cell-based; details: Homo sapiens, HT-29, 72 h, read-out: IN Vitro IC50 (nm) HT29
Method in brief: as §1

[1] = system: HT29 human tumor xenografts; experiment: HT29 xenograft study e212, oral and i.v. (Example 26); details: 25 mg/kg iv qwk × 3
From the text: (§2) The formulation for oral studies was an ethanol and Cremophor formulation while the formulation for compound 18365 and compound 19244 dosed i.v. was 5% ethanol and 95% Liposyn II 20%.

MALME-3 = experiment: MTT cytotoxicity (IC50), MALME-3; assay type: cell-based; details: Homo sapiens, 72 h, read-out: IN Vitro IC50 (nm) Malme3
Method in brief: as §1

[2] = system: human BxPC-3 human pancreatic xenograft; assay type: in vivo; details: for T/C % values: from D33
Method: Method: Twenty four (24) hours after a whole body irradiation with a γ-source (7.0 Gy, Co^60, INRA, Dijon, France) 20×10^6 BxPC-3 cells in 200 μl of RPMI 1640 culture medium were subcutaneously injected in the right flank of 8 female Nude rats to generate tumor material. When the tumor size reaches approximately 1,000 mm^3, the tumors were surgically excised for implantation into recipient Nude female rats. Twenty four (24) hours after a whole body irradiation (7.0 Gy, Co^60, INRA, Dijon, France), fresh BxPC-3 tumor fragments were sc implanted in the right flank of 52 Nude female rats (1 fragment/rat) at D0 using surgical pliers and skin was stitched. The antitumor activity study was started at D21 when the mean tumor volume has reached 321.6±131.2 mm^3. Before the start of treatments, 42 tumor bearing rats out of 52 grafted were randomized into 7 groups of 6 animals.
[…]. At 7 mg/kg/inj, only two treatments were performed at D21 and D42 due to severe body weight loss.

[3] = system: HT29 human tumor xenografts; experiment: HT29 xenograft study e210, oral and i.v. (Example 25); details: 25 mg/kg iv qwk × 3
From the text: as §2

[4] = system: human MX-1 breast carcinoma; experiment: MX1 xenograft study e219R1, i.v. single dose (Example 17)
[5] = system: HT29 human tumor xenografts; experiment: HT29 xenograft study e139 (Example 23); assay type: in vivo, nude mice

CC(=O)O[C@@]12CO[C@@H]1C[C@H](O)[C@@]1(C)C(=O)[C@H](O)C3=C(C)[C@@H](OC(=O)[C@H](O)[C@@H](NC(=O)OC(C)(C)C)c4ccccc4)C[C@@](O)([C@@H](OC(=O)c4ccccc4)[C@H]21)C3(C)C [Docetaxel, docetaxel, reference compound]
IC50 (786-0; MTT, 72 h, read-out: IN Vitro IC50 (nm) 786-0): 6.2 nM
IC50 (786-0; Resistance MDR1+, read-out: 786-0 Renal (Table 4, quantity not named; IC50 values as Table 2)): 6.2 nM
IC50 (OVCAR4): 1.4 nM
IC50 (HT29): 1.3 nM
CR (complete regression) ([1]; n=6): 0
NTR NTRm ([1]; n=6): 0
PR (partial regression) ([1]; n=6): 3
TFS (tumor-free survivor) ([1]; n=6): 0
TR (treatment-related death) ([1]; n=6): 0
% TGD ([1]; vehicle ET): 237.14%
MTV (n), Day 59 ([1]; vehicle ET): 600.00 (6) mm^3
Median TTE ([1]; vehicle ET): 59 days
T-C ([1]; vehicle ET): 41.5 days
IC50 (MALME-3): 1.8 nM
rats found dead ([2]; 5 mg/kg/inj IV, 6 rats per group): 2
rats found dead ([2]; 5 mg/kg/inj IV, 6 rats per group, listed as TXT): two
optimal T/C % value ([2]; 5 mg/kg/inj IV, at D60): 3.8%
animals with complete tumor regression ([2]; 5 mg/kg/inj IV, at D81 (final sacrifice), 6 rats per group): one
T/C % values ([2]; 5 mg/kg/inj IV): lower than 42%
rats found dead ([2]; 7 mg/kg/inj IV, 6 rats per group): 2
rats found dead ([2]; 7 mg/kg/inj IV, 6 rats per group, listed as TXT): Two
optimal T/C % value ([2]; 7 mg/kg/inj IV, at D56): 12.3%
T/C % values ([2]; 7 mg/kg/inj IV): lower than 42%
antitumor activity ([2]; repeated IV injections at 5 and 7 mg/kg/inj): marked antitumor activity
% TGD [3]: 214.3%
MTV (n), Day 60 [3]: 40.00 (6) mm^3
Median TTE [3]: 60 days
T-C [3]: 40.91 days
CR (complete regression) ([3]; n=6): 4
NTR NTRm ([3]; n=6): 0
PR (partial regression) ([3]; n=6): 2
TFS (tumor-free survivor) ([3]; n=6): 2
TR (treatment-related death) ([3]; n=6): 0
% TGD ([4]; 25 mg/kg iv qd × 1): 89.79%
BW Nadir ([4]; 25 mg/kg iv qd × 1): −10.2% (5)
MTV (n), Day 60 ([4]; 25 mg/kg iv qd × 1): 0.00 (5) mm^3
Median TTE ([4]; 25 mg/kg iv qd × 1): 61 days
T-C ([4]; 25 mg/kg iv qd × 1): 28.86 days
CR (complete regression) ([4]; 25 mg/kg iv qd × 1, n=5): 5
NTR (non-treatment-related death) ([4]; 25 mg/kg iv qd × 1, n=5): 0
PR (partial regression) ([4]; 25 mg/kg iv qd × 1, n=5): 0
TFS (tumor-free survivor) ([4]; 25 mg/kg iv qd × 1, n=5): 4
TR (treatment-related death) ([4]; 25 mg/kg iv qd × 1, n=5): 0
group mean weight loss ([4]; 25 mg/kg qd×1): 10.2%
transient CR ([4]; 25 mg/kg qd×1, n=5): 1
Day 54 mm^3 (tumor size) ([5]; 25 mg/kg iv q7d × 3): 180.6 mm^3
Max. BW Loss %; Day ([5]; 25 mg/kg iv q7d × 3): −14.4%; Day 19
Number of Death NTR ([5]; 25 mg/kg iv q7d × 3, N=6): 0
Number of Death TR ([5]; 25 mg/kg iv q7d × 3, N=6): 0
TGD ([5]; 25 mg/kg q7d×3): 210%
group mean body-weight (BW) loss ([5]; 25 mg/kg q7d×3): 14.4%
MTV (Day 61) ([5]; 25 mg/kg q7d×3, five mice): 196 mm^3
LTTFS ([5]; 25 mg/kg q7d×3, six mice): 1
PR responses ([5]; 25 mg/kg q7d×3, six mice): 5
